# Reference: US20070167464A1, “Fungicidal mixtures” (BASF Aktiengesellschaft, priority 2004, published 2007)
# Tested on: Pyrenophora teres
# Experiment: activity against net blotch of barley caused by Pyrenophora teres, 1-day-protective application
# Type: in vivo, Pyrenophora [syn. Drechslera] teres on barley seedlings
# Details: individual active compound, evaluated after 6 days
# Description: The active compounds, separately or jointly, were prepared as a stock solution comprising 0.25% by weight of active compound in acetone or DMSO. 1% by weight of the emulsifier Uniperol® EL (wetting agent having emulsifying and dispersant action based on ethoxylated alkylphenols) was added to this solution, and the mixture was diluted with water to the desired concentration.
# Use example-activity against net blotch of barley caused by Pyrenophora teres, 1-day-protective application
# Leaves of pot-grown barley seedlings were sprayed to run-off point with an aqueous suspension having the concentration of active compound stated below. 24 hours after the spray coating had dried on, the test plants were inoculated with an aqueous spore suspension of Pyrenophora[syn. Drechslera] teres, the causative agent of net blotch. The test plants were subsequently placed in a greenhouse at temperatures between 20 and 24° C. and at 95 to 100% relative atmospheric humidity. After 6 days, the extent of development of the disease was determined visually in % infection of the total leaf area.
# The visually determined percentages of infected leaf areas were converted into efficacies in % of the untreated control:
# The efficacy (E) is calculated as follows using Abbot's formula: E=(1α/β)·100 • α corresponds to the fungicidal infection of the treated plants in % and • β corresponds to the fungicidal infection of the untreated (control) plants in %
# An efficacy of 0 means that the infection level of the treated plants corresponds to that of the untreated control plants; an efficacy of 100 means that the treated plants were not infected.
# The expected efficacies of mixtures of active compounds were determined using Colby's formula (Colby, S. R. “Calculating synergistic and antagonistic responses of herbicide combinations”, Weeds, 15, 20-22, 1967) and compared with the observed efficacies.
# Colby's Formula: E=x+y−x·y/100 • E expected efficacy, expressed in % of the untreated control, when using the mixture of the active compounds A and B at the concentrations a and b • x efficacy, expressed in % of the untreated control, when using the active compound A at the concentration a
# y efficacy, expressed in % of the untreated control, when using the active compound B at the concentration b
structure (smiles),measurement,setting,value
"CC(C)OC(=O)N[C@H](C(=O)N[C@H](C)c1nc2ccc(F)cc2s1)C(C)C [II.1, isopropyl {(S)-1-[(1 R)-1-(6-fluorobenzothiazol-2-yl)ethylcarbamoyl]-2-methylpropyl}carbamate]",Efficacy in % of the untreated control,0.25 ppm in the spray liquor,0%
same,Efficacy in % of the untreated control,1.25 ppm in the spray liquor,0%
same,Efficacy in % of the untreated control,6.25 ppm in the spray liquor,0%
"CC1CCN(c2c(-c3c(F)cc(F)cc3F)c(Cl)nc3ncnn23)CC1 [I, 5-chloro-7-(4-methylpiperidin-1-yl)-6-(2,4,6-trifluorophenyl)-[1,2,4]triazolo[1,5-a]pyrimidine]",Efficacy in % of the untreated control,1.25 ppm in the spray liquor,53%
